The source of these data is US6977262B2, “Dihydropyrazolopyridine compounds and pharmaceutical use thereof” (Mitsubishi Pharma Corporation, priority 2001, dated 2005).

`CCCC1=C(C(=O)OCC)C(c2ccccc2Cl)c2cnn(C(=O)c3ccccc3)c2N1` (centres unmarked) [Example 210, Ethyl 1-benzoyl-4-(2-chlorophenyl)-4,7-dihydro-6-propyl-1H-pyrazolo[3,4-b]pyridine-5-carboxylate] returned a melting point of 115 °C.
In the case of `CCCC1=C(C(=O)OCC)C(c2ccccc2Cl)c2cn(C(=O)c3ccccc3)nc2N1` (centres unmarked) [Example 211, Ethyl 2-benzoyl-4-(2-chlorophenyl)-4,7-dihydro-6-propyl-2H-pyrazolo[3,4-b]pyridine-5-carboxylate] it was 119 to 121 °C; in that of `CCCC1=C(C(=O)OCC)C(c2ccccc2Cl)c2cn(C(=O)Nc3ccccc3)nc2N1` (centres unmarked) [Example 215, Ethyl 4-(2-chlorophenyl)-4,7-dihydro-2-phenylcarbamoyl-6-propyl-2H-pyrazolo[3,4-b]pyridine-5-carboxylate], 145 to 147 °C; in that of `CCCC1=C(C(=O)OCC)C(c2ccccc2Cl)c2cn(C(=O)Oc3ccccc3)nc2N1` (centres unmarked) [Example 218, Ethyl 4-(2-chlorophenyl)-4,7-dihydro-2-phenoxycarbonyl-6-propyl-2H-pyrazolo[3,4-b]pyridine-5-carboxylate], 156 to 157 °C.
In the case of `CCCC1=C(C(=O)OCC)C(c2ccccc2Cl)c2cnn(C(=O)OCC)c2N1` (centres unmarked) [Example 219, Ethyl 4-(2-chlorophenyl)-1-ethoxycarbonyl-4,7-dihydro-6-propyl-1H-pyrazolo[3,4-b]pyridine-5-carboxylate] it was 88 to 89 °C.
In the case of `CCCOC(=O)n1ncc2c1NC(CCC)=C(C(=O)OCC)C2c1ccccc1Cl` (centres unmarked) [Example 221, Ethyl 4-(2-chlorophenyl)-4,7-dihydro-1-propoxycarbonyl-6-propyl-1H-pyrazolo[3,4-b]pyridine-5-carboxylate] it was 66 to 68 °C; in that of `CCCOC(=O)n1cc2c(n1)NC(CCC)=C(C(=O)OCC)C2c1ccccc1Cl` (centres unmarked) [Example 222, Ethyl 4-(2-chlorophenyl)-4,7-dihydro-2-propoxycarbonyl-6-propyl-2H-pyrazolo[3,4-b]pyridine-5-carboxylate], 59 °C; in that of `CCCC1=C(C(=O)OCC)C(c2ccccc2Cl)c2cnn(C(C)=O)c2N1` (centres unmarked) [Example 224, Ethyl 1-acetyl-4-(2-chlorophenyl)-4,7-dihydro-6-propyl-1H-pyrazolo[3,4-b]pyridine-5-carboxylate], 75 to 76 °C.
Molecule `CCCC1=C(C(=O)OCC)C(c2ccccc2Cl)c2cnn(C(=O)C=Cc3ccccc3)c2N1` (centres unmarked) [Example 228, Ethyl 4-(2-chlorophenyl)-1-cinnamoyl-4,7-dihydro-6-propyl-1H-pyrazolo[3,4-b]pyridine-5-carboxylate] showed a melting point of 131 to 134 °C.
In the case of `CCCC1=C(C(=O)OCC)C(c2ccccc2Cl)c2c(n[nH]c2C)N1` (centres unmarked) [Example 230, Ethyl 4-(2-chlorophenyl)-4,7-dihydro-3-methyl-6-propyl-2H-pyrazolo[3,4-b]pyridine-5-carboxylate], the melting point was in the range of 164 to 165 °C.
In the case of `CCCC1=C(C(=O)OCC)C(c2ccccc2Cl)c2cn(C)nc2N1` (centres unmarked) [Example 231, Ethyl 4-(2-chlorophenyl)-4,7-dihydro-2-methyl-6-propyl-2H-pyrazolo[3,4-b]pyridine-5-carboxylate] it was 150 to 151 °C.
In the case of `CCCC1=C(C(=O)OCC)C(c2cccc(Cl)c2)c2c[nH]nc2N1` (centres unmarked) [Example 234, Ethyl 4-(3-chlorophenyl)-4,7-dihydro-6-propyl-2H-pyrazolo[3,4-b]pyridine-5-carboxylate] it was 140 to 143 °C; in that of `CCCC1=C(C(=O)OCC)C(c2ccc(Cl)cc2)c2c[nH]nc2N1` (centres unmarked) [Example 235, Ethyl 4-(4-chlorophenyl)-4,7-dihydro-6-propyl-2H-pyrazolo[3,4-b]pyridine-5-carboxylate], 159 to 161 °C; in that of `CCCC1=C(C(=O)OCC)C(c2[nH]cnc2C)c2c[nH]nc2N1` (centres unmarked) [Example 236, Ethyl 4,7-dihydro-4-(4-methyl-1H-imidazol-5-yl)-6-propyl-2H-pyrazolo[3,4-b]pyridine-5-carboxylate], 219 to 220 °C.
In the case of `CCCC1=C(C(=O)OCC)C(c2nccn2C)c2c[nH]nc2N1` (centres unmarked) [Example 237, Ethyl 4,7-dihydro-4-(1-methyl-1H-imidazol-2-yl)-6-propyl-2H-pyrazolo[3,4-b]pyridine-5-carboxylate] it was 209 °C.
`CCCC1=C(C(=O)OCC)C(c2cnc[nH]2)c2c[nH]nc2N1` (centres unmarked) [Example 238, Ethyl 4,7-dihydro-4-(1H-imidazol-5-yl)-6-propyl-2H-pyrazolo[3,4-b]pyridine-5-carboxylate] gave a melting point of 200 °C.
Then `CCCCC1=C(C(=O)OCC)C(c2cccc3nonc23)c2c[nH]nc2N1` (centres unmarked) [Example 239, Ethyl 4-(2,1,3-benzoxadiazol-4-yl)-6-butyl-4,7-dihydro-2H-pyrazolo[3,4-b]pyridine-5-carboxylate], with 213 °C; and `N#CC1=C(c2cccs2)Nc2n[nH]cc2C1c1ccccc1Cl` (centres unmarked) [Example 241, 4-(2-Chlorophenyl)-5-cyano-4,7-dihydro-6-(thiophen-2-yl)-2H-pyrazolo[3,4-b]pyridine], with 174 °C.
In the case of `COc1ccccc1C1C(C#N)=C(c2cccs2)Nc2n[nH]cc21` (centres unmarked) [Example 242, 5-Cyano-4,7-dihydro-4-(2-methoxyphenyl)-6-(thiophen-2-yl)-2H-pyrazolo[3,4-b]pyridine] it was 215 °C; in that of `CSc1ccccc1C1C(C#N)=C(c2cccs2)Nc2n[nH]cc21` (centres unmarked) [Example 243, 5-Cyano-4,7-dihydro-4-(2-methylthiophenyl)-6-(thiophen-2-yl)-2H-pyrazolo[3,4-b]pyridine], 222 °C; in that of `N#CC1=C(c2cccs2)Nc2n[nH]cc2C1c1ccccc1[N+](=O)[O-]` (centres unmarked) [Example 244, 5-Cyano-4,7-dihydro-4-(2-nitrophenyl)-6-(thiophen-2-yl)-2H-pyrazolo[3,4-b]pyridine], 165 °C.
Turning to `N#CC1=C(c2cccs2)Nc2n[nH]cc2C1c1cccc2nsnc12` (centres unmarked) [Example 245, 4-(2,1,3-Benzothiadiazol-4-yl)-5-cyano-4,7-dihydro-6-(thiophen-2-yl)-2H-pyrazolo[3,4-b]pyridine], the melting point was found to be 254 °C.
Then `N#CC1=C(c2cccs2)Nc2n[nH]cc2C1c1cccc2ccccc12` (centres unmarked) [Example 246, 5-Cyano-4,7-dihydro-4-(naphthalen-1-yl)-6-(thiophen-2-yl)-2H-pyrazolo[3,4-b]pyridine], with 214 °C; and `N#CC1=C(c2cccs2)Nc2n[nH]cc2C1c1cccc(Cl)c1Cl` (centres unmarked) [Example 247, 5-Cyano-4-(2,3-dichlorophenyl)-4,7-dihydro-6-(thiophen-2-yl)-2H-pyrazolo[3,4-b]pyridine], with 232 °C.
Then `Cc1ccccc1C1C(C#N)=C(c2ccccc2)Nc2n[nH]cc21` (centres unmarked) [Example 248, 5-Cyano-4,7-dihydro-4-(2-methylphenyl)-6-phenyl-2H-pyrazolo[3,4-b]pyridine], with 246 °C; and `Cc1ccccc1C1C(C#N)=C(c2cccs2)Nc2n[nH]cc21` (centres unmarked) [Example 249, 5-Cyano-4,7-dihydro-4-(2-methylphenyl)-6-(thiophen-2-yl)-2H-pyrazolo[3,4-b]pyridine], with 276 °C.
